Converted amounts (≈) assume the structure as drawn. “Also recorded” adds a separate entry of the source. Where two headings read alike, the source gives them in different places.
Key:
[1] = system: M. furfur; experiment: MIC and MFC by broth microdilution technique; assay type: cell-based, Malassezia furfur; details: for MFC: first figure of MFC/MIC cell; for MIC: second figure of MFC/MIC cell
Protocol: (§1) The MIC of first extract and individual fractions (1-7) which were collected from RP-HPLC was calculated by ‘broth microdilution technique’ in 96-well microtiter plates. […] As a positive control, commercially used antifungal drug ketoconazole was used in concentrations ranging from 32 μg/mL to 0.0156 μg/mL. The plates were incubated at 30° C. for Malassezia spp and the results were recorded after 48 h and 7 days. The minimum inhibitory concentration (MIC) was measured as the lowest sample concentration that could inhibit the fungal growth.

[2] = system: Malassezia indicator strains; experiment: Agar plate diffusion assay, antifungal activity in words; assay type: cell-based; details: against Malassezia, compared among fractions 1-7
Protocol: (§2) said first extract is analyzed for antifungal activity using agar plate diffusion assay and by time kill procedure. […] For time-kill procedure, the inoculum suspension of indicator strains of Malassezia (10^5 CFU/mL) is exposed to different concentration of First extract. Then, 50-μL aliquots is withdrawn at fixed intervals and evaluated. […] Said first extract is used further for down streaming to separate the antifungal peptides.
About 15 ml fraction which was obtained after anion exchange chromatography was lyophilized to get about 1500 mg of dry powder. About 50 mg was mixed with 1 ml sodium phosphate buffer and then said solution was injected to Scalar C18 column. The separation of the antifungal peptides was carried out by binary solvent gradient elution system comprising about 0.1% trifluoroacetic acid in HPLC grade deionized water (eluent A) and about 0.1% trifluoroacetic acid in acetonitrile (eluent B). The gradient program was as follows between: 0 to 20 min, 0-40% B, 20-30 min, 40 to 80% B, 30 to 35 min, 80 to 100% B, 35 to 45 min, 100 to 0% B at a flow rate of about 1.0 mL/min at 30° C., Six separate fractions were collected at retention times of 24.5, 28.2, 30.1, 32.2, 34.5 and 37.1 minutes and seventh fraction was collected from 38 to 43 minutes according to the absorption profile at 220 nm and 280 nm using the fraction collector and further freeze-dried. […]

[3] = system: M. furfur; experiment: Agar plate diffusion assay, zone of inhibition; assay type: cell-based, Malassezia furfur
Protocol: as §2
(§3) About 15 ml fraction which was obtained after anion exchange chromatography was lyophilized to get about 1500 mg of dry powder. About 50 mg was mixed with 1 ml sodium phosphate buffer and then said solution was injected to Scalar C18 column. The separation of the antifungal peptides was carried out by binary solvent gradient elution system comprising about 0.1% trifluoroacetic acid in HPLC grade deionized water (eluent A) and about 0.1% trifluoroacetic acid in acetonitrile (eluent B). The gradient program was as follows between: 0 to 20 min, 0-40% B, 20-30 min, 40 to 80% B, 30 to 35 min, 80 to 100% B, 35 to 45 min, 100 to 0% B at a flow rate of about 1.0 mL/min at 30° C., Six separate fractions were collected at retention times of 24.5, 28.2, 30.1, 32.2, 34.5 and 37.1 minutes and seventh fraction was collected from 38 to 43 minutes according to the absorption profile at 220 nm and 280 nm using the fraction collector and further freeze-dried. Individual fractions were labelled as 1, 2, 3, 4, 5, 6 and 7 in the order if increasing retention times, dissolved in sterile distilled water and then tested for their individual antifungal activity. […] And fraction 5 was not reported against M. furfur, M. globose species. For experiment the 0.1 M sodium phosphate buffer was used as a negative control and Ketoconazol was used as a positive control

[4] = system: M. globosa; experiment: Agar plate diffusion assay, zone of inhibition; assay type: cell-based, Malassezia globosa
Protocol: as §2, §3

[5] = system: M. globosa; experiment: MIC and MFC by broth microdilution technique; assay type: cell-based, Malassezia globosa; details: for MFC: first figure of MFC/MIC cell; for MIC: second figure of MFC/MIC cell
Protocol: as §1

Molecule | MFC ([1]; M. furfur) [µg/mL] | MIC ([1]; M. furfur) [µg/mL] | MFC ([1]; first M. furfur column) [µg/mL] | MIC ([1]; first M. furfur column) [µg/mL] | antifungal activity of individual fractions in words [2] | Zone of inhibition [3] [mm] | Zone of inhibition [4] [mm] | MFC [5] [µg/mL] | MIC [5] [µg/mL] | MFC ([1]; Malassezia furfur, first M. furfur column, read-out: MFC) [µg/mL] | MIC ([1]; Malassezia furfur, first M. furfur column, read-out: MIC) [µg/mL] | MFC ([5]; Malassezia globosa, read-out: MFC) [µg/mL] | MIC ([5]; Malassezia globosa, read-out: MIC) [µg/mL]
C[C@@H]1CCC/C=C/C=C/[C@H](O)C[C@@H](O)C/C=C\C=C\[C@@H](O)C/C=C/C=C\C(=O)O1 [Fraction 5, Macrolactin A] | 330 (≈ 820 µM) | 165 (≈ 410 µM) | 313 (≈ 778 µM) | 156 (≈ 388 µM) | strongest anti-fungal activity | 2 ± 0.77 | 2 ± 0.69 | 275 (≈ 683 µM) | 138 (≈ 343 µM) | – | – | – | –
CC1CCCC=CC=CC(O)CC(O)CC=CC=CC(OC(=O)CCC(=O)O)CC=CC=CC(=O)O1 (stereo not drawn) [Fraction 6, 7-O-succinylmacrolactin A] | 96 (≈ 191 µM) | 48 (≈ 95.5 µM) | 96 (≈ 191 µM) | 48 (≈ 95.5 µM) | strongest anti-fungal activity; also recorded: strongest antifungal activity | 6 ± 0.7 | 7 ± 0.65 | 96 (≈ 191 µM) | 48 (≈ 95.5 µM) | – | – | – | –
CC(=O)N1CCN(c2ccc(OCC3COC(Cn4ccnc4)(c4ccc(Cl)cc4Cl)O3)cc2)CC1 (stereo not drawn) [Ketoconazole, reference compound] | 0.1 (≈ 0.188 µM) | 0.03 (≈ 0.0565 µM) | – | – | – | 12 ± 0.65 | 11 ± 0.64 | – | – | 0.1 (≈ 0.188 µM) | 0.03 (≈ 0.0565 µM) | 0.08 (≈ 0.151 µM) | 0.03 (≈ 0.0565 µM)
C14 Bacillomycin D [Fraction 2] | >228 | >228 | >228 | >228 | – | 2 ± 0.45 | 2 ± 0.42 | >228 | >228 | – | – | – | –
C15 Bacillomycin D [Fraction 3] | >228 | >228 | >228 | >228 | – | 3 ± 0.26 | 2 ± 0.25 | >228 | >228 | – | – | – | –
C16 Bacillomycin D [Fraction 4] | >228 | >228 | >228 | >228 | – | – | – | >228 | >228 | – | – | – | –

From US12508216B2, “Process for the preparation of antimalassezia powder” (PRAJ INDUSTRIES LIMITED, priority 2022, dated 2025)
